Test results reported in patent US20220151276A1, “COMPOSITION CONTAINING PLANT-DERIVED EXTRACT AND/OR PLANT-DERIVED PROCESSED PRODUCT” (OTSUKA PHARMACEUTICAL CO., LTD., priority 2019, published 2022).

Tested on: healthy adult males
Assay: Incremental loading exercise test with bicycle
Assay type: in vivo, human
Method: For 25 healthy adult males, 3 dosages of kaempferol-containing cookie-shaped foods (containing 2.5 mg, 10 mg, or 25 mg of kaempferol, respectively) and a placebo cookie-shaped food (kaempferol-free) were used as test foods, and a once-a-day ingestion for consecutive 8 days were repeated four times by the crossover method. 3 hours after a test food ingestion on day 1 (Single ingestion) and on day 8 (Consecutive ingestion), an incremental loading exercise with bicycle was performed while sampling the exhaled gas to determine the oxygen consumption. The Heart rate and the rating of perceived exertion were monitored during exercise. Dynamic/kinetic visual acuity was measured before and after the exercise. Details of each endpoint are given below. Oxygen consumption (VO2) (mL/min/kg) was calculated from the difference between the amount of oxygen in the inhaled gas (atmosphere) and the amount of oxygen in the exhaled gas. When a weight of the pedal approaches a subject's limit during incremental loading exercise with bicycle, a heart rate (HR) is maximized. The increase in heart rate from the resting heart rate to the maximum heart rate was defined as 100% of exercise intensity, and the oxygen consumption (VO2) was plotted at each exercise intensity. That is, for example, an exercise intensity of 50% HR is calculated by the following equation: 100×(x−Resting heart rate)/(Maximum heart rate−Resting heart rate)=50% HR, and the oxygen consumption (VO2) in which the heart rate is the “x” means “oxygen consumption (VO2) at an exercise intensity of 50% HR”. Oxygen consumption efficiency was calculated by the following equation. Oxygen consumption efficiency (VO2/VE)=oxygen consumption/ventilation The oxygen uptake efficiency slope (OUES) was calculated using the ventilation and VO2 every 1 min from the beginning of the incremental loading exercise. Specifically, a graph of linearity was obtained by plotting “logarithmic value of ventilation (VE)” on the horizontal axis and “VO2” on the vertical axis, and the slope of the linear function graph was defined as OUES. For details, see Non-Patent Document 5. Exercise intensity (% HR) and rating of perceived exertion (RPE) at the oxygen consumption (VO2) of 14 mL/min/kg and 24.5 mL/min/kg in incremental loading exercise (the levels of stair climbing and jogging, respectively) were evaluated. The calculation methods for oxygen consumption (VO2) and exercise intensity (% HR) are the same as those described above. The perceived exertion was rated by the subject according to the following table at 1-minute intervals from the beginning of the incremental loading exercise, and the scales rated by each subject were averaged to give the rating of perceived exertion (RPE).

[1] = single and consecutive ingestion, at VO2 of 14 mL/min/kg (stair climbing) and 24.5 mL/min/kg (jogging), compared with no intake of kaempferol
[2] = single and consecutive ingestion, incremental loading exercise, compared with no intake of kaempferol

O=c1c(O)c(-c2ccc(O)cc2)oc2cc(O)cc(O)c12 [kaempferol]
oxygen consumption efficiency (VO2/VE) (single and consecutive ingestion, after initiation of incremental loading exercise, compared with no intake of kaempferol): increased oxygen consumption efficiency | exercise intensity (% HR) at given oxygen consumption [1]: decreased exercise intensity | rating of perceived exertion (RPE) [1]: decreased rating of perceived exertion | maximum exercise load (Pedal Weight (watt)) [2]: increased maximum exercise load | maximum oxygen consumption (VO2peak) [2]: increased maximum oxygen consumption | oxygen uptake efficiency slope (OUES) [2]: increased oxygen uptake efficiency slope | oxygen consumption (VO2) at each exercise intensity (single ingestion (day 1) and consecutive ingestion (day 8), 3 hours after ingestion, exercise intensities 50-100% HR, compared with no intake of kaempferol (placebo)): increased oxygen consumption at all exercise intensities
